18 molecules from patent publication US10829458B2 (Araxes Pharma LLC, priority 2015, dated 2020) can be followed below.

The assay concerns the target T1, KRAS G12C 1-169, his-tagged protein, GDP-loaded (Homo sapiens, UniProt P01116, G12C).
T1 construct: KRAS G12C 1-169, his-tagged protein, GDP-loaded
Put plainly: Biochemical assay: covalent modification of KRAS G12C measured by mass spectrometry (RapidFire/TOF or Q-Exactive). To be noted: covalent binding to KRAS G12C. The procedure:
Test compounds were prepared as 10 mM stock solutions in DMSO (Fisher cat #BP-231-100). KRAS G12C 1-169, his-tagged protein, GDP-loaded was diluted to 2 μm in buffer (20 mM Hepes, 150 mM NaCl, 1 mM MgCl2). Compounds were tested for activity as follows:
Compounds were diluted to 50× final test concentration in DMSO in 96-well storage plates. Compound stock solutions were vortexed before use and observed carefully for any sign of precipitation. Dilutions were as follow: • For 100 μM final compound concentration, compounds were diluted to 5000 μM (5 μl 10 mM compound stock+5 μl DMSO and mixed well by pipetting. • For 30 μM final compound concentration, compounds were diluted to 1500 μM (3 μl 10 mM compound stock+17p DMSO) and mixed well by pipetting. • For 10 μM final compound concentration, compounds were diluted to 500 μM (2 μl 10 mM compound stock+38p DMSO) and mixed well by pipetting. 49p of the stock protein solution was added to each well of a 96-well PCR plate (Fisher cat #1423027). 1 μl of the diluted 50× compounds were added to appropriate wells in the PCR plate using 12-channel pipettor. Reactions were mixed carefully and thoroughly by pipetting up/down with a 200·1 multi-channel pipettor. The plate was sealed well with aluminum plate seal, and stored in drawer at room temperature for 30 min, 2 hour or 24 hrs. 5·1 of 2% formic acid (Fisher cat #A117) in DI H2O was then added to each well followed by mixing with a pipette. The plate was then resealed with aluminum seal and stored on dry ice until analyzed as described below.
The above described assays were analyzed by mass spectrometry according to one of the following two procedures:
The MS instrument is set to positive polarity, 2 GHz resolution, and low mass (1700) mode and allowed to equilibrate for 30 minutes. The instrument is then calibrated, switched to acquisition mode and the appropriate method loaded.
After another 30 minute equilibration time, a blank batch (i.e., buffer) is run to ensure equipment is operating properly. The samples are thawed at 37° C. for 10 minutes, briefly centrifuged, and transfer to the bench top. Wells A1 and H12 are spiked with 1 uL 500 uM internal standard peptide, and the plates centrifuged at 2000×g for 5 minutes. The method is then run and masses of each individual well recorded.
The masses (for which integration data is desired) for each well are pasted into the platemap and exported from the analysis. Masses for the internal standards are exported as well. The data at 50 ppm is extracted for the +19 charge state, and identity of well A1 is assigned using the internal standard spike and integrated. Peak data is exported as a TOF list and the above steps are repeated individually, for the +20, 21, 22, 23, 24, and 25 charge states.
The masses and peak intensities of KRAS G12C protein species were measured using a Dionex RSLCnano system (Thermo Scientific) connected to a Q Exactive Plus mass spectrometer (Thermo Scientific).
[…] of sample was each loaded onto a Aeris™ 3.6 μm WIDEPORE C4 200 Å, LC Column 50×2.1 mm column maintained at 40° C. at a flow rate of 600 μl min^−1 with […] (0.1% formic acid in acetonitrile). The liquid chromatography conditions were 20% solvent B for 1 min, 20% to 60% solvent B for 1.5 min, 60% to 90% solvent for 0.5 min, 90% solvent B for 0.2 min, 90% to 20% solvent B for 0.2 min, and then equilibrated for 1.6 min before the following sample injection. The flow rate was maintained at 600 μl min^−1 throughout the sample analysis.
The mass spectrometer was operated in profile mode at a resolution of 17500, 5 microscans, using 50 msec max injection time and an AGC target of 1e6, and a full mass range from 800-1850 m/z was recorded. The HCD trapping gas was optimized for maximum sensitivity for intact proteins. […]

In the case of `C=CC(=O)N1CCN(c2nc(OCCN3CCOCC3)nc3c(F)c(-c4cc(O)cc5cccnc45)c(Cl)cc23)CC1` [Example I-108, 1-(4-(6-chloro-8-fluoro-7-(6-hydroxy-quinolin-8-yl)-2-(2-morpholino-ethoxy)quinazolin-4-yl)piperazin-1-yl) prop-2-en-1-one], under “compounds of structure (I)”, the Binding % result is “+++ (+++ indicates binding activity greater than 90%)”.

Consider `C=CC(=O)N1CCN(c2nc(OC3CCOCC3)nc3c(F)c(-c4c(C)ccc5[nH]ncc45)c(Cl)cc23)CC1` [Example I-13, 1-(4-(6-chloro-8-fluoro-7-(5-methyl-1H-indazol-4-yl)-2-(tetrahydro-2H-pyran-4-yloxy)quinazolin-4-yl)piperazin-1-yl)prop-2-en-1-one], for which, where the note is “compounds of structure (I)”, the Binding % entry is “+++ (+++ indicates binding activity greater than 90%)”.

With `C=CC(=O)N1CCN(c2nc(NCC3CCN(C4CC4)CC3)nc3c(F)c(-c4c(C)ccc5[nH]ncc45)c(Cl)cc23)CC1` [Example I-160, 1-(4-(6-chloro-2-((1-cyclo-propyl-piperidin-4-yl)methylamino)-8-fluoro-7-(5-methyl-1H-indazol-4-yl)quinazolin-4-yl)piperazin-l-yl) prop-2-en-1-one], the Binding % entry (compounds of structure (I)) was “+++ (+++ indicates binding activity greater than 90%)”.

As for `C=CC(=O)N1CCN(c2nc(OC3CCN(C)C3)nc3c(F)c(-c4c(O)cccc4F)c(Cl)cc23)CC1` (stereo not drawn) [Example I-22, 1-(4-(6-chloro-8-fluoro-7-(2-fluoro-6-hydroxyphenyl)-2-(1-methyl-pyrrolidin-3-yloxy)quinazolin-4-yl)piperazin-1-yl)prop-2-en-1-one], the Binding % result (compounds of structure (I)) is listed as “++ (++ indicates binding activity from 50 to 90%)”.

With `C=CC(=O)N1CCN(c2nc(NC3CCN(CC(F)(F)F)CC3)nc3c(F)c(-c4c(C)ccc5[nH]ncc45)c(Cl)cc23)CC1` [Example I-12, 1-(4-(6-chloro-8-fluoro-7-(5-methyl-1H-indazol-4-yl)-2-(1-(2,2,2-trifluoroethyl)piperidin-4-ylamino)quinazolin-4-yl)piperazin-1-yl)prop-2-en-1-one], the Binding % result (compounds of structure (I)) was “++ (++ indicates binding activity from 50 to 90%)”.

For the molecule `C=CC(=O)N1CCN(c2nc(NC3CCN(C4COC4)CC3)nc3c(F)c(-c4c(C)ccc5[nH]ncc45)c(Cl)cc23)CC1` [Example I-137, 1-(4-(6-chloro-8-fluoro-7-(5-methyl-1H-indazol-4-yl)-2-(1-(oxetan-3-yl)piperidin-4-ylamino)quinazolin-4-yl)piperazin-1-yl) prop-2-en-1-one], the Binding % result (compounds of structure (I)) was “+++ (+++ indicates binding activity greater than 90%)”.

With `C=CC(=O)N1CCN(c2nc(OCCN(CC)CC)nc3c(F)c(-c4c(C)ccc5cn[nH]c45)c(Cl)cc23)CC1` [Example I-183, 1-(4-(6-chloro-2-(2-(diethyl-amino)ethoxy)-8-fluoro-7-(6-methyl-1H-indazol-7-yl)quinazolin-4-yl)piperazin-1-yl) prop-2-en-1-one], the Binding % entry (compounds of structure (I)) is “+++ (+++ indicates binding activity greater than 90%)”.

With `C=CC(=O)N1CCN(c2nc(NC3CCN(C4CC4)CC3)nc3c(F)c(-c4c(C)ccc5[nH]ncc45)c(Cl)cc23)CC1` (atropisomer, axis not shown) [Example I-81, (S)-1-(4-(6-chloro-2-(1-cyclopropyl-piperidin-4-ylamino)-8-fluoro-7-(5-methyl-1H-indazol-4-yl)quinazolin-4-yl)piperazin-1-yl)prop-2-en-1-one], under “compounds of structure (I)”, the Binding % result was “+ (+ indicates binding activity up to 50%)”.

For the molecule `C=CC(=O)N1CCN(c2nc(OCCN3CCOCC3)nc3c(F)c(-c4cc(O)cc5ccccc45)c(Cl)cc23)CC1` (atropisomer, axis not shown) [Example I-52, (R)-1-(4-(6-chloro-8-fluoro-7-(3-hydroxy-naphthalen-1-yl)-2-(2-morpholino-ethoxy)quinazolin-4-yl)piperazin-1-yl)prop-2-en-1-one], the Binding % result (compounds of structure (I)) is recorded as “+ (+ indicates binding activity up to 50%)”.

In the case of `C=CC(=O)N1CCN(c2nc(OCC3CCN(CC(F)(F)F)CC3)nc3c(F)c(-c4c(O)cccc4F)c(Cl)cc23)CC1` [Example I-35, 1-(4-(6-chloro-8-fluoro-7-(2-fluoro-6-hydroxyphenyl)-2-((1-(2,2,2-trifluoroethyl)piperidin-4-yl)methoxy)quinazolin-4-yl)piperazin-1-yl)prop-2-en-1-one], the Binding % result (compounds of structure (I)) was “++ (++ indicates binding activity from 50 to 90%)”.

For the molecule `O=C(/C=C/CN1CCOCC1)N1CCN(c2ncnc3c(F)c(-c4c(O)cccc4F)c(Cl)cc23)CC1` [II-1, (E)-1-(4-(6-chloro-8-fluoro-7-(2-fluoro-6-hydroxyphenyl)quinazolin-4-yl)piperazin-1-yl)-4-morpholinobut-2-en-1-one], the Binding % entry (compounds of structure (II)) is on record as “+ (+ indicates binding activity up to 50%)”.

Regarding `C=CC(=O)N1CCN(c2nc(OCC(=O)N(C)C)nc3c(F)c(-c4c(C)ccc5[nH]ncc45)c(Cl)cc23)CC1` [Example I-4, 2-(4-(4-acryloylpiperazin-1-yl)-6-chloro-8-fluoro-7-(5-methyl-1H-indazol-4-yl)quinazolin-2-yloxy)-N,N-dimethyl-acetamide], the Binding % entry (compounds of structure (I)) is on record as “++ (++ indicates binding activity from 50 to 90%)”.

With `C=CC(=O)N1[C@H](C)CN(c2c(C#N)cnc3c(F)c(-c4c(O)cccc4F)c(Cl)cc23)C[C@@H]1C` [III-43], the Binding % result (compounds of structure (III)) was “++ (++ indicates activity from 50% to 90%)”.

Turning to `C=CC(=O)N1CCN(c2nc(NC3CCN(C4CC4)CC3)nc3c(F)c(-c4c(O)cccc4F)c(Cl)cc23)CC1` (atropisomer, axis not shown) [Example I-78, (S)-1-(4-(6-chloro-2-(1-cyclopropyl-piperidin-4-ylamino)-8-fluoro-7-(2-fluoro-6-hydroxyphenyl)quinazolin-4-yl)piperazin-1-yl)prop-2-en-1-one], for the setting “compounds of structure (I)”, the Binding % result is “+++ (+++ indicates binding activity greater than 90%)”.

As for `C=CC(=O)N1CCN(c2nc(OCC3CN(c4ncccc4F)C3)nc3c(F)c(-c4c(C)ccc5[nH]ncc45)c(Cl)cc23)CC1` [Example I-158, 1-(4-(6-chloro-8-fluoro-2-((1-(3-fluoropyridin-2-yl)azetidin-3-yl)methoxy)-7-(5-methyl-1H-indazol-4-yl)quinazolin-4-yl)piperazin-1-yl) prop-2-en-1-one], where the note is “compounds of structure (I)”, the Binding % result is “+++ (+++ indicates binding activity greater than 90%)”.

With `C=CC(=O)N1CCN(c2nc(OCCN3CCOCC3)nc3c(F)c(-c4c(O)cccc4F)c(Cl)cc23)CC1` (atropisomer, axis not shown) [Example I-28, (R)-1-(4-(6-chloro-8-fluoro-7-(2-fluoro-6-hydroxyphenyl)-2-(2-morpholino-ethoxy)quinazolin-4-yl)piperazin-1-yl)prop-2-en-1-one], the Binding % entry (compounds of structure (I)) is recorded as “+ (+ indicates binding activity up to 50%)”.

As to `C=CC(=O)N1CCN(c2nc(OCCc3ncccc3F)nc3c(F)c(-c4c(O)cccc4F)c(Cl)cc23)CC1` [Example I-114, 1-(4-(6-chloro-8-fluoro-7-(2-fluoro-6-hydroxyphenyl)-2-(2-(3-fluoro-pyridin-2-yl)ethoxy)quinazolin-4-yl)piperazin-1-yl) prop-2-en-1-one], where the note is “compounds of structure (I)”, the Binding % result is recorded as “+++ (+++ indicates binding activity greater than 90%)”.

Turning to `C=CC(=O)N1CCN(c2nc(OCCn3ccnc3C)nc3c(F)c(-c4c(C)ccc5[nH]ncc45)c(Cl)cc23)CC1` [Example I-6, 1-(4-(6-chloro-8-fluoro-2-(2-(2-methyl-1H-imidazol-1-yl)ethoxy)-7-(5-methyl-1H-indazol-4-yl)quinazolin-4-yl)piperazin-1-yl)prop-2-en-1-one], where the note is “compounds of structure (I)”, the Binding % entry is given as “+++ (+++ indicates binding activity greater than 90%)”.
